Test system: Human Microvascular Endothelial Cells (HMVEC)
Assay: Endothelial cell migration assay (bFGF induced, modified Boyden chamber)
Format: cell-based
Conditions: 600 nM test substance, 4 hours at 37 °C, percent inhibition of migration compared to a positive control
Protocol: The endothelial cell migration assay was performed essentially as described by Polverini, P.J. et al., Methods Enzymol, 198: 440-450 (1991). Briefly, Human Microvascular Endothelial Cells (HMVEC) were starved overnight in DMEM (Dulbecco's Modified Eagle Medium) containing 0.1% bovine serum albumin (BSA). Cells were then harvested with trypsin and resuspended in DMEM with 0.1% BSA at a concentration of 1.5 x 10^6 cells/mL. Cells were added to the bottom of a 48-well modified Boyden chamber (Nucleopore Corporation, Cabin John, MD). The chamber was assembled and inverted, and cells were allowed to attach for 2 hours at 37 °C to polycarbonate chemotaxis membranes (5 µm pore size) that had been soaked in 0.1% gelatin overnight and dried. The chamber was then reinverted and basic fibroblast growth factor (bFGF) and test substances were added to the wells of the upper chamber (to a total volume of 50 µL); the apparatus was then incubated for 4 hours at 37 °C. Membranes were recovered, fixed and stained (DiffQuick, Fisher Scientific, Pittsburgh, PA) and the number of cells that had migrated to the upper chamber per 10 high power fields were counted. Background migration to DMEM + 0.1% BSA was subtracted and the data reported as the number of cells migrated per 10 high power fields (400X) or when results from multiple experiments were combined, as the percent inhibition of migration compared to a positive control.

Q: For `Nc1nc(N)nc(C23CC4CC(CC(C4)C2)C3)n1` [Example 52, 6-(tricyclo[3.3.1.1^3.7]decan-1-yl)-1,3,5-triazine-2,4-diamine], which “% inhibition at (nM)” value is on record?
A: 100 (600) %

Same assay, conditions: Homo sapiens, 200 nM test substance, 4 hours at 37 °C, percent inhibition of migration compared to a positive control

Q: With `Nc1nc(N)nc(C2CC3CCC2C3)n1` (stereo not drawn) [Example 65, 6-(bicyclo[2.2.1]hept-2-yl)-1,3,5-triazine-2,4-diamine] as the molecule, how does the inhibition at 0.2 µM read?
A: 32%

Same assay, conditions: Homo sapiens, 500 nM test substance, 4 hours at 37 °C, percent inhibition of migration compared to a positive control

Q: How did the inhibition at 0.5 µM turn out when `CNc1nc(NC)nc(-c2ccc(-c3ccccc3)cc2)n1` [Example 63, 6-[1,1'-biphenyl]-4-yl-N,N'-dimethyl-1,3,5-triazine-2,4-diamine] was run?
A: 79%

Q: How did the inhibition at 0.5 µM turn out when `Cc1ccc(-c2nc(N)nc(N)n2)cn1` [Example 68, 6-(6-methyl-3-pyridinyl)-1,3,5-triazine-2,4-diamine] was run?
A: 73%

Q: With `Nc1nc(N)nc(-c2ccc(Cl)nc2)n1` [Example 69, 6-(6-chloro-3-pyridinyl)-1,3,5-triazine-2,4-diamine] as the molecule, how does the inhibition at 0.5 µM read?
A: 39%

Q: With `Nc1nc(N)nc(C2CCN(C(=O)c3ccccc3)CC2)n1` [Example 74, 6-(1-benzoyl-4-piperidinyl)-1,3,5-triazine-2,4-diamine] as the molecule, how does the inhibition at 0.5 µM read?
A: 82%

Q: With `Nc1nc(N)nc(C2CCN(Cc3ccccc3)CC2)n1` [Example 75, 6-[1-(phenylmethyl)-4-piperidinyl]-1,3,5-triazine-2,4-diamine] as the molecule, how does the inhibition at 0.5 µM read?
A: 16%

Q: How did the inhibition at 0.5 µM turn out when `CC(=O)Nc1nc(NC(C)=O)nc(-c2ccc(S(=O)(=O)c3ccccc3)cc2)n1` [Example 76, N,N'-diacetyl-6-[4-(phenylsulfonyl)phenyl]-1,3,5-triazine-2,4-diamine] was run?
A: 33%

Q: With `CC(=O)Nc1nc(N)nc(-c2ccc(S(=O)(=O)c3ccccc3)cc2)n1` [Example 77, N-acetyl-6-[4-(phenylsulfonyl)phenyl]-1,3,5-triazine-2,4-diamine] as the molecule, how does the inhibition at 0.5 µM read?
A: 50%

Same assay, conditions: Homo sapiens, 600 nM test substance, 4 hours at 37 °C, percent inhibition of migration compared to a positive control

Q: With `Nc1nc(N)nc(C2CN(C(c3ccccc3)c3ccccc3)C2)n1` [Example 1, 6-[1-(diphenylmethyl)-3-azetidinyl]-1,3,5-triazine-2,4-diamine] as the molecule, how does the inhibition at 0.6 µM read?
A: 20%

Q: Which inhibition at 0.6 µM does the source give for `Nc1nc(N)nc([C@H]2CC[C@H](c3ccccc3)CC2)n1` [Example 3, trans-6-(4-phenylcyclohexyl)-1,3,5-triazine-2,4-diamine] here?
A: 100%

Q: Which inhibition at 0.6 µM does the source give for `Nc1nc(N)nc(-c2cccc(-n3cccc3)c2)n1` [Example 4, 6-[3-(1H-pyrrol-1-yl)phenyl]-1,3,5-triazine-2,4-diamine] here?
A: 62%

Q: How did the inhibition at 0.6 µM turn out when `Nc1nc(N)nc(-c2ccccc2-c2ccccc2)n1` [Example 6, 6-[1,1'-biphenyl]-2-yl-1,3,5-triazine-2,4-diamine] was run?
A: 95%

Q: How did the inhibition at 0.6 µM turn out when `Nc1nc(N)nc(-c2ccc(-c3ccc([N+](=O)[O-])cc3)cc2)n1` [Example 7, 6-(4'-nitro[1,1'-biphenyl]-4-yl)-1,3,5-triazine-2,4-diamine] was run?
A: 100%

Q: Which inhibition at 0.6 µM does the source give for `CCCCC[C@H]1CC[C@H](c2ccc(-c3nc(N)nc(N)n3)cc2)CC1` [Example 8, trans-6-[4-(4-pentylcyclohexyl)phenyl]-1,3,5-triazine-2,4-diamine] here?
A: 30%

Q: Which inhibition at 0.6 µM does the source give for `Nc1nc(N)nc(-c2ccc(Oc3ccccc3)cc2)n1` [Example 9, 6-(4-phenoxyphenyl)-1,3,5-triazine-2,4-diamine] here?
A: 29%

Q: For `Nc1nc(N)nc(-c2ccc(NC(=O)NC3CCCCC3)cc2)n1` [Example 10, N-cyclohexyl-N'-[4-(4,6-diamino-1,3,5-triazin-2-yl)phenyl]urea], which inhibition at 0.6 µM is on record?
A: 29%

Q: Which inhibition at 0.6 µM does the source give for `Nc1nc(N)nc(-c2ccc(NC(=O)Nc3ccccc3)cc2)n1` [Example 12, N-[4-(4,6-diamino-1,3,5-triazin-2-yl)phenyl]-N'-phenyl urea] here?
A: 36%

Q: For `Nc1nc(N)nc(N2CCC3(CC2)OCCO3)n1` [Example 13, 6-(1,4-dioxa-8-azaspiro[4,5]dec-8-yl)-1,3,5-triazine-2,4-diamine], which inhibition at 0.6 µM is on record?
A: 53%

Q: Which inhibition at 0.6 µM does the source give for `Nc1nc(N)nc(-c2ccc3ccccc3n2)n1` [Example 47, 6-(2-quinolinyl)-1,3,5-triazine-2,4-diamine] here?
A: 65%

Q: How did the inhibition at 0.6 µM turn out when `Nc1nc(N)nc(-c2cnc3ccccc3c2)n1` [Example 48, 6-(3-quinolinyl)-1,3,5-triazine-2,4-diamine] was run?
A: 55%

Q: `Nc1nc(N)nc(Cc2cc3ccccc3s2)n1` [Example 49, 6-(benzo[b]thien-2-ylmethyl)-1,3,5-triazine-2,4-diamine] was tested. Which inhibition at 0.6 µM did it give?
A: 14%

Q: With `CC1(C)C=Cc2cc(-c3nc(N)nc(N)n3)ccc2O1` [Example 50, 6-(2,2-dimethyl-2H-1-benzopyran-6-yl)-1,3,5-triazine-2,4-diamine] as the molecule, how does the inhibition at 0.6 µM read?
A: 100%

Q: For `Nc1nc(N)nc(C2COc3ccccc3O2)n1` (stereo not drawn) [Example 51, 6-(2,3-dihydro-1,4-benzodioxin-2-yl)-1,3,5-triazine-2,4-diamine], which inhibition at 0.6 µM is on record?
A: 100%

Q: How did the inhibition at 0.6 µM turn out when `Nc1nc(N)nc(-c2nccc3ccccc23)n1` [Example 53, 6-(1-isoquinolinyl)-1,3,5-triazine-2,4-diamine] was run?
A: 85%

Q: Which inhibition at 0.6 µM does the source give for `Nc1nc(N)nc(-c2ccc3c(c2)OCCO3)n1` [Example 55, 6-(2,3-dihydro-1,4-benzodioxin-6-yl)-1,3,5-triazine-2,4-diamine] here?
A: 84%

Q: `Nc1nc(N)nc(C23CCN(CC2)CC3)n1` [Example 56, 6-(1-azabicyclo[2.2.2]octan-4-yl)-1,3,5-triazine-2,4-diamine] was tested. Which inhibition at 0.6 µM did it give?
A: 30%

Q: How did the inhibition at 0.6 µM turn out when `Nc1nc(N)nc(-c2ccc(S(=O)(=O)c3ccccc3)cc2)n1` [Example 58, 6-[4-(phenylsulfonyl)phenyl]-1,3,5-triazine-2,4-diamine] was run?
A: 100%

Q: For `Nc1nc(N)nc(-c2cnccn2)n1` [Example 60, 6-pyrazinyl-1,3,5-triazine-2,4-diamine], which inhibition at 0.6 µM is on record?
A: 100%

Q: `Nc1nc(N)nc(-c2cc(Cl)ccc2Cl)n1` [Irsogladine, reference compound] was tested. Which inhibition at 0.6 µM did it give?
A: 53%
